Patent US7008953B2, “3, 5 Disubstituted indazole compounds, pharmaceutical compositions, and methods for mediating or inhibiting cell proliferation” (Agouron Pharmaceuticals, Inc., priority 2003, dated 2006)

Experiments:
Format in all cases: biochemical
Conditions in all cases: method of Davies et al.
casein kinase 1 (CK1) = test: Panel of protein kinases: CK1
Procedure: (§1) The compounds of the present invention were screened against a large panel of protein kinase to determine inhibition activity for CDK as against a variety of protein kinases. The assay was conducted using methods and materials described by Davies, S et al. Specificity and Mechanism of Action of Some Commonly Used Protein Kinase Inhibitors, Biochem J. 351, 95–105 (2000), the contents of which are herein incorporated by reference. The compounds were screened against a panel of protein kinases which include AMP-activiated protein kinase (AMPK), checkpoint kinase (CHK1), casein kinases 1 and 2 (CK1 and CK2), cytoplasmic tyrosine kinase (CSK), dual serine/threonine/tyrosine kinase (DYRK1A), glycogen synthase kinase 3 (GSK3B), c-Jun N-terminal kinase (JNK), lymphocyte kinase (LCK), mitogen-activated protein kinases 2, K-1a, K2 (MAPK2, MAPKAP-K1a, and MAPKAP-K2), MAPK kinase (MKK1, also called MEK), mitogen and stress-activated protein kinase 1 (MSK1), never-in-mitosis kinase 6 (NEK6), p70 ribosomal protein S6 kinase (P70s6K1), 3-phosphoinositide-dependent protein kinase 1 (PDK1), phosphorylase kinase (PHK), protein kinase A (PKA), protein kinase B (PKB, also called Akt), protein kinase C (PKCa), p38-regulated/activated kinase (PRAK), Rho-dependent protein kinase (ROCK-II), stress-activated protein kinase 2a, 2b, 3 and 4 (SAPK-2A or p38, SAPK-2b or p38β2, SAPK3 or p38γ, SAPK4 or p38δ, respectively), and serum- and glucocorticoid-induced kinase (SGK). Compound activity was grouped into categories of weak (<50%), moderate (50–75%) and strong inhibition (>75%).

[1] = molecular target: T1, 3-phosphoinositide-dependent protein kinase 1 (PDK1) (Homo sapiens, UniProt O15530); test: Panel of protein kinases: PDK1
T1 sequence (O15530 1-556): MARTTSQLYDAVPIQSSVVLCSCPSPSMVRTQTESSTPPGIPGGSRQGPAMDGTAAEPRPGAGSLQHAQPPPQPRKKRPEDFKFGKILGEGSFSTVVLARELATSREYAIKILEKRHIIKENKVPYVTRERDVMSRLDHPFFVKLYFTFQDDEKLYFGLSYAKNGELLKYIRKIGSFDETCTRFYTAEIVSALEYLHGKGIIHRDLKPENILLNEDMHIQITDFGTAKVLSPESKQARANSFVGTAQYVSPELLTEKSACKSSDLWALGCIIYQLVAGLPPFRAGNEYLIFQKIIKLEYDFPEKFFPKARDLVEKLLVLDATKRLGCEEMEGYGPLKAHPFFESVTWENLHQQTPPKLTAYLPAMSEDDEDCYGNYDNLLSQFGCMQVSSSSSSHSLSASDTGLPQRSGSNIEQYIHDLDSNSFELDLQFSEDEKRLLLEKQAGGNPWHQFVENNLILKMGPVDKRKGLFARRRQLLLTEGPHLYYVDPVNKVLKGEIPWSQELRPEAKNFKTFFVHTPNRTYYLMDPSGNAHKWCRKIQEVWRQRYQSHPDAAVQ
Procedure: as §1

casein kinase 2 (CK2) = test: Panel of protein kinases: CK2
Procedure: as §1

[2] = system: Rho-dependent protein kinase (ROCK-II); test: Panel of protein kinases: ROCK-II
Procedure: as §1

[3] = molecular target: T2, stress-activated protein kinase 3 (SAPK3 or p38γ) (Homo sapiens, UniProt P53778); test: Panel of protein kinases: SAPK3
T2 sequence (P53778 1-367): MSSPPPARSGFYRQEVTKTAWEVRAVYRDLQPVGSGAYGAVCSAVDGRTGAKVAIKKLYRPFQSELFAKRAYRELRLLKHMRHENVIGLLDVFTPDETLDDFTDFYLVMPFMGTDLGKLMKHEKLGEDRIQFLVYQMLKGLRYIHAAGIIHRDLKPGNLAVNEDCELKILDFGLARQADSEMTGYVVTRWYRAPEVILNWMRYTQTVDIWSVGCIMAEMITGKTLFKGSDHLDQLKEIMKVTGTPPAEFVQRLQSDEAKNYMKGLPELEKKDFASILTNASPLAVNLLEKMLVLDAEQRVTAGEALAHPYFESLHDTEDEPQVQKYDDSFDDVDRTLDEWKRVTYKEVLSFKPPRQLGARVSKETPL
Procedure: as §1

[4] = system: AMP-activiated protein kinase (AMPK); test: Panel of protein kinases: AMPK
Procedure: as §1

[5] = system: p70 ribosomal protein S6 kinase (P70s6K1); test: Panel of protein kinases: P70s6K1
Procedure: as §1

[6] = molecular target: T3, p38-regulated/activated kinase (PRAK) (Homo sapiens, UniProt Q8IW41); test: Panel of protein kinases: PRAK
T3 sequence (Q8IW41 1-473): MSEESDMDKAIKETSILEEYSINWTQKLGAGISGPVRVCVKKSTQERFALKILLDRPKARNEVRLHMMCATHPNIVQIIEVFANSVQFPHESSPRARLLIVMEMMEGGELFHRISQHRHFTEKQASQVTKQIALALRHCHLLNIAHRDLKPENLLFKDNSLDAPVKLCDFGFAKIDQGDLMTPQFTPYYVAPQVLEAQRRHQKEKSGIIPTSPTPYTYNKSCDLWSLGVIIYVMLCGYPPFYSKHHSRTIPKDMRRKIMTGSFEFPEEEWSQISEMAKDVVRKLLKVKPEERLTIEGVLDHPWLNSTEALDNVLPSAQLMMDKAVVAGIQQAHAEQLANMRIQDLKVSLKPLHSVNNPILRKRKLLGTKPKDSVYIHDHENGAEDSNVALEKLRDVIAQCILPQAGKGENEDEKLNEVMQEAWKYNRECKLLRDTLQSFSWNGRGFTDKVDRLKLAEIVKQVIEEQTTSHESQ
Procedure: as §1

Structure (SMILES) | Kinase CK1 inhibition (casein kinase 1 (CK1)) | Kinase PDK1 inhibition [1] | Kinase CK2 inhibition (casein kinase 2 (CK2)) | Kinase ROCK-II inhibition [2] | Kinase SAPK3 inhibition [3] | Kinase AMPK inhibition [4] | Kinase P70s6K1 inhibition [5] | Kinase PRAK inhibition [6]
CCNCc1cncc(-c2ccc3[nH]nc(-c4nc5ccccc5[nH]4)c3c2)c1C [A] | − (Weak inhibition <50%) | + (Moderate inhibition 50–75%) | − (Weak inhibition <50%) | ++ (Strong inhibition >75%) | − (Weak inhibition <50%) | ++ (Strong inhibition >75%) | + (Moderate inhibition 50–75%) | ++ (Strong inhibition >75%)
CCNCc1cncc(-c2ccc3[nH]nc(-c4nc5c(C(=O)NC)cccc5[nH]4)c3c2)c1C [B] | − (Weak inhibition <50%) | − (Weak inhibition <50%) | − (Weak inhibition <50%) | + (Moderate inhibition 50–75%) | − (Weak inhibition <50%) | ++ (Strong inhibition >75%) | + (Moderate inhibition 50–75%) | + (Moderate inhibition 50–75%)
CCNCc1cncc(-c2ccc3[nH]nc(-c4nc5c(SC)cccc5[nH]4)c3c2)c1C [C] | − (Weak inhibition <50%) | − (Weak inhibition <50%) | − (Weak inhibition <50%) | + (Moderate inhibition 50–75%) | − (Weak inhibition <50%) | ++ (Strong inhibition >75%) | − (Weak inhibition <50%) | ++ (Strong inhibition >75%)
CCNCc1cncc(-c2ccc3[nH]nc(-c4nc5c(NC(C)=O)cccc5[nH]4)c3c2)c1C [D] | − (Weak inhibition <50%) | − (Weak inhibition <50%) | − (Weak inhibition <50%) | − (Weak inhibition <50%) | − (Weak inhibition <50%) | ++ (Strong inhibition >75%) | − (Weak inhibition <50%) | + (Moderate inhibition 50–75%)
CCNCc1cncc(-c2ccc3[nH]nc(-c4nc5c(F)cc(F)cc5[nH]4)c3c2)c1C [Example 1, {5-[3-(4,6-Difluoro-1H-benzoimidazol-2-yl)-1H-indazol-5-yl]-4-methyl-pyridin-3-ylmethyl}-ethyl-amine] | − (Weak inhibition <50%) | − (Weak inhibition <50%) | − (Weak inhibition <50%) | − (Weak inhibition <50%) | − (Weak inhibition <50%) | ++ (Strong inhibition >75%) | − (Weak inhibition <50%) | − (Weak inhibition <50%)
CCNCc1cncc(-c2ccc3[nH]nc(-c4nc5cc(F)ccc5[nH]4)c3c2)c1C [Example 2, Ethyl-{5-[3-(5-fluoro-1H-benzoimidazol-2-yl)-1H-indazol-5-yl]-4-methyl-pyridin-3-ylmethyl}-amine] | – | − (Weak inhibition <50%) | – | – | − (Weak inhibition <50%) | – | – | − (Weak inhibition <50%)
